Experimental data from patent US12508176B2, “Sanitary article comprising a water-soluble dry coating comprising skin beneficial additives” (priority 2022, dated 2025).

Assay: transfer study of dry water-soluble coating from sanitary article to skin (tape stripping, LC-MS/MS)
Assay type: in vivo, test persons
Description: FIG. 3 is a bar chart illustrating the results from a transfer study made with two sanitary articles according to the present invention. Eight test persons wore sanitary articles on three different spots on the volar forearms for three days (3 products per day). One spot was covered with products coated with formula A, one with products coated with formula B and one with reference product without any formula. After three days the skin in the test spots plus one additional spot where no product had been worn was harvested by means of tape stripping. The sample tape strips were extracted, analyzed by LC-MS/MS quantifying the betaine and allantoin content.

SMILES | transfer to the skin (betaine and allantoin content of tape strips) (sanitary articles coated with formula A or B worn on volar forearms for three days, 3 products per day, tape stripping, LC-MS/MS, FIG. 3) | transfer to the skin (betaine and allantoin content of tape strips) (in vivo)
NC(=O)NC1NC(=O)NC1=O (centres unmarked) [allantoin] | readily detected on the skin | 
C[N+](C)(C)CC(=O)[O-] [betaine, trimethylglycine] |  | readily detected on the skin
